From patent US20160175324A1, “ANTI-ACNE COMPOSITIONS COMPRISING BILE ACID-FATTY ACID CONJUGATES” (GALDERM THERAPEUTICS LTD., priority 2013, published 2016)

Tests used:
[1] = test system: sebum production; settings: background statement; cited from earlier work
[2] = test system: ABCA1; assay: ABCA1 protein concentration in fibroblasts during cholesterol efflux; format: cell-based, human; settings: efflux in the presence of FABAC, compared to untreated cells
Description: (§1) Steamchol was incubated with human skin fibroblasts for 20 hours to measure cholesterol loading in the presence of [^3H] cholesterol. After series of washing and adding efflux containing cholesterol acceptors, medium was collected and centrifuged and cell associated cholesterol was compared to effluxed cholesterol in the presence and absence of the similar FABAC. This research project also included quantification of mRNA of ABCA1 and direct measurement of ABCA1.
(§2) Similarly, cells were pre-incubated with […] cholesterol, washed four times and then placed in an incubation medium with or without Aramchol for 20 hours. Following the incubation, radioactivity was measured separately in the medium and in the cells. Cholesterol efflux percentage was calculated as radioactivity in medium divided by the total radioactivity (cells+medium).

[3] = test system: human skin fibroblasts; assay: Cholesterol efflux with [3H] cholesterol in fibroblasts; format: cell-based; settings: 20 hours incubation, compared to untreated cells
Description: as §1, §2

[4] = test system: KRT1 (keratin 1); assay: Taqman gene expression in Epiderm FT skin culture, KRT1; format: cell-based; settings: 0.5% (5000 μg/mL) in DMSO, 24 hours post-application, vs DMSO control
Description: (§3) A full-thickness in vitro skin culture model, Epiderm FT (MatTek, MA), was treated with Steamchol. A non-cytotoxic concentration of Steamchol in DMSO (0.5%, 5000 μg/mL) was applied to the surface of each test culture and cells were collected 24 hours post-application. Control cells were similarly treated with DMSO without Steamchol. Tissues were collected in RNAlater for gene expression analysis. Gene expression was analyzed using validated Taqman gene expression assays in a Taqman Low Density Array (TLDA) format. 94 genes that regulate a variety of known functions in skin were analyzed, including the ABCA1 and SCD1 genes. The experimental set up was conducted in a 96-well format using validated Taqman gene expression assays. Each gene was assayed in duplicates. Statistics were carried out using the StatMiner software v4.2 (unpaired t-tests, p<0.05, N=4) to compare the 0.5% Steamchol group to the DMSO control group.

[5] = test system: ABCA1; assay: Taqman gene expression in Epiderm FT skin culture, ABCA1 mRNA; format: cell-based; settings: 0.5% (5000 μg/mL) in DMSO, 24 hours post-application, vs DMSO control
Description: as §3

[6] = test system: Full-thickness Epiderm cultures (EFT-400, MatTek); assay: Cytotoxicity assay (MTT) after topical application to full-thickness skin cultures; format: cell-based; settings: for Cell Viability: 24-hour exposure, MTT, vs untreated control
Description: Full-thickness Epiderm cultures (EFT-400, MatTek) were used to determine toxicity in response to topical application of a test material (Steamchol).
The test material was provided as a powder. Test solutions were prepared by adding the appropriate amount of powdered material to 1 mL DMSO. Lower concentrations were made by serial dilution with 100% DMSO. The final test material concentrations and treatments were: 2% Steamchol (20,000 ug/mL); 1% Steamchol (10,000 ug/mL); 0.1% Steamchol (1000 ug/mL); 0.01% Steamchol (100 ug/mL); vehicle control (100% DMSO); and untreated control.
Full-thickness skin cultures (EFT-400) were maintained according to MatTek protocol; the cultures were equilibrated at 37° C. and 5% CO2 for 24 hours prior to application of test materials. Test material was applied to the surface of each culture using sterile techniques (10 μL applied to each culture). Two cultures were assigned to each treatment group and the viability percentages presented below are averages of viability of each two cultures. Two EFT cultures served as an untreated control (also referred to as negative control in FIG. 2), and two other EFT cultures served as a positive control (100 μL 1% Triton X-100).
Following a 24-hour incubation period with the test material, cultures were processed for cell toxicity analysis using an MTT [(3-4,5-dimethylthiazole-2-yl) 2,5-diphenyltetrazoliumbromide] assay (reagents purchased from MatTek). Viable tissues converted MTT into a blue formazan salt that was detected by measuring absorbance at a specific wavelength of light (A570). Percent viability was calculated by comparing the A570 reading of the test cultures to the A570 of the untreated control culture, using the following formula: [Treated A570/Untreated A570]*100

[7] = test system: KRT10 (keratin 10); assay: Taqman gene expression in Epiderm FT skin culture, KRT10; format: cell-based; settings: 0.5% (5000 μg/mL) in DMSO, 24 hours post-application, vs DMSO control
Description: as §3

Row | Structure (SMILES) | Decrease of sebum production [1] | ABCA1 protein concentration increase [2] | Cholesterol efflux in fibroblasts [3] | Fold Change of keratin 1 gene expression [4] | Change in mRNA levels of ABCA1 [5] | Cell Viability ([6]; 0.01% Steamchol (100 ug/mL) in DMSO) [%] | Cell Viability ([6]; 0.1% Steamchol (1000 ug/mL) in DMSO) [%] | Cell Viability ([6]; 1% Steamchol (10,000 ug/mL) in DMSO) [%] | Cell Viability ([6]; 2% Steamchol (20,000 ug/mL) in DMSO) [%] | Toxicity in previous viability assay ([6]; 40.0, 13.3, 4.4, 1.5 ug/mL, data not shown) | Cell viability compared to the untreated control ([6]; all dilutions tested (0.01%-2%), 24 hours) [%] | Fold Change of keratin 10 gene expression [7]
1 | CC1=C(/C=C/C(C)=C/C=C/C(C)=C\C(=O)O)C(C)(C)CCC1 [Isotretinoin] | up to 90% | – | – | – | – | – | – | – | – | – | – | –
2 | CCCCCCCCCCCCCCCCCCCC(=O)N[C@H]1CC[C@@]2(C)[C@@H](C1)C[C@@H](O)[C@@H]1[C@@H]2C[C@H](O)[C@]2(C)[C@@H]([C@H](C)CCC(=O)O)CC[C@@H]12 [Aramchol, 3β-arachidylamido-7α,12α, dihidroxy-5β-cholan-24-oic acid] | – | approximately 2 fold | significantly enhanced | – | – | – | – | – | – | – | – | –
3 | CCCCCCCCCCCCCCCCCC(=O)N[C@H]1CC[C@@]2(C)[C@@H](C1)C[C@@H](O)[C@@H]1[C@@H]2C[C@H](O)[C@]2(C)[C@@H]([C@H](C)CCC(=O)O)CC[C@@H]12 [Steamchol, 3β-stearylamido-7α,12α, dihidroxy-5β-cholan-24-oic acid] | – | approximately 2 fold | significantly enhanced | −2.49 | No significant change | 100.41 | 99.98 | 96.88 | 93.89 | no toxicity was observed | ~100 | −2.60
